Results published in US20100215759A1 (priority 2009, published 2010).

How the values were obtained:
CB2 receptors = biological target: T1, CB2 receptors (Mus musculus, UniProt P47936); assay: biochemical; type: binding
T1 construct: the complete brain (excluding the cerebellum) and the spleen were quickly dissected and kept in ice; from tissue; host or cells: mouse spleen, membrane preparation
Description: (§1) The affinity of the synthesized compounds towards the CB1 and CB2 cannabinoidergic receptors was evaluated in vitro by radioreceptor binding studies using the method reported hereinunder.
(§2) The technique of the receptor binding allows to establish if, and with which affinity and specificity, a specific compound binds to a particular receptor. To evaluate the affinity of a specific compound to a particular receptor it is necessary to challenge in a particular tissue preparation wherein those specific receptors are present the compound to be tested with a radioactive labelled compound whose affinity for the same receptors is known. […] The amount of radioactivity present in the receptor-compound complex allows furthermore to estimate with great accuracy the amount of compound bound to the receptor. By said method it is therefore possible to establish quickly the affinity of a new compound towards a specific receptor and thus to determine its pharmacological activity. With the same experimental protocol it is possible to evaluate the affinity of the compound towards other receptors and thus establish its specificity degree toward said other receptors.
(§3) The food and water were ad libitum.
(§4) The procedure adopted, based on the use of the compound [^3H]-CP-55,940 (New England Nuclear, Boston, Mass., USA), requires the use of the mouse brain as biological tissue for the evaluation of the affinity towards the CB1 receptors and of the mouse spleen for the affinity assay for the CB2 receptors.
(§5) The animals were sacrificed by cervical dislocation and the complete brain (excluding the cerebellum) and the spleen were quickly dissected and kept in ice.
(§6) The tissue was homogenized in 15 volumes (weight/volume) of TME buffer (50 Mm Tris, 1 mM EDTA and 3 mM MgCl2, pH 7.4) by an Ultra-Turrax and subsequently centrifuged for 10 minutes at 1086×g in a centrifuge refrigerated at 4° C. The recovered supernatant was centrifuged at 45,000×g for 30 minutes at 4° C. by using a Beckman SW41 rotor and the obtained pellet was resuspended in 50 volumes of TME.
(§7) The thus obtained membranes (50-80 μg of proteins) were incubated in the presence of 1 nM of [^3H]-CP55.940 for 1 hour at 30° C. in a final volume of 0.5 ml of TME buffer containing 5 mg/ml of bovine serum albumin (BSA). The non specific binding was measured in the presence of CP55.940 at a 1 μM concentration.
(§8) All the experiments were carried out in polypropylene test tubes pretreated with Sigma-Cote (Sigma Chemical Co. Ltd., Poole, UK) for reducing non specific binding.
(§9) In order to determine the competitive inhibition binding curves, eight different concentrations of each compound were used.
(§10) Incubation was stopped by addition of TME buffer (at 4° C.) containing 5 mg/ml of BSA, and subsequent filtration under vacuum by Whatman GFC filters pretreated with 0.5% of polyethylamine (PEI) and by using a filtering device (Brandell, Gaithersburg, Md., USA). The filters were washed 3 times with […] of Tris HCl buffer (pH 7.4, 4° C.) containing 1 mg/ml of BSA and separately placed in plastic vials containing 4 ml of scintillating liquid (Ultima Gold MV, Packard).
(§11) The radioactivity present in the filters was determined by a scintillator spectrophotometer (Tricarb® 2100, Packard, Meridien, USA).
(§12) Protein determination was carried out by the Bradford method by using the protocol and the reactants supplied by Bio-Rad (Milano, Italy).

CB1 receptors = biological target: T2, CB1 receptors (Mus musculus, UniProt P47746); assay: biochemical; type: binding
T2 construct: the complete brain (excluding the cerebellum) and the spleen were quickly dissected and kept in ice; from tissue; host or cells: mouse brain (excluding cerebellum), membrane preparation
Description: as §1, §2, §3, §4, §5, §6, §7, §8, §9, §10, §11, §12

T1 sequence (P47936 whole entry): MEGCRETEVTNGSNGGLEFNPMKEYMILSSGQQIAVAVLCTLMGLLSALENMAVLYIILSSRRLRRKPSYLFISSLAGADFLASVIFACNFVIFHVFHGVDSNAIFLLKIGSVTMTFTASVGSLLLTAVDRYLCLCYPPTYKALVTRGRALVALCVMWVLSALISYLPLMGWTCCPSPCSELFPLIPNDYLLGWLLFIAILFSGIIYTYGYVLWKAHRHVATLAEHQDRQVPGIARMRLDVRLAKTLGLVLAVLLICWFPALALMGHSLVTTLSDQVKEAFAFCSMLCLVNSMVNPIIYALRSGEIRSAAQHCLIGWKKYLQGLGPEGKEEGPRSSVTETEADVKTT
T2 sequence (P47746 whole entry): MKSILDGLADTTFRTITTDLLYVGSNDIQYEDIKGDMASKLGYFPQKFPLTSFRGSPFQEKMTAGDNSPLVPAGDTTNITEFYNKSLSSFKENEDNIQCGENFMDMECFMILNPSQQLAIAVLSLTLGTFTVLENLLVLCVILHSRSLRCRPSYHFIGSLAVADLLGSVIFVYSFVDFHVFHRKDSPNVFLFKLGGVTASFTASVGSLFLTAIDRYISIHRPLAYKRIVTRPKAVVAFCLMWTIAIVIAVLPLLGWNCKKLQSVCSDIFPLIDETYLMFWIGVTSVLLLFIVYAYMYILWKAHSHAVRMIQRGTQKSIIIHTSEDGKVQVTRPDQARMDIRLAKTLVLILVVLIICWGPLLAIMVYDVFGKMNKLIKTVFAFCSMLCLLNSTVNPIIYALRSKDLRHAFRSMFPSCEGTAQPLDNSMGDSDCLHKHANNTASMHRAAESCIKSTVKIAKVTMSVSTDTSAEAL

Compound | Ki (CB2 receptors) [nM] | Ki (CB1 receptors) [nM]
Cc1cc2c(s1)-c1c(c(C(=O)NCC3CCC4CC3C4(C)C)nn1-c1ccc(F)cc1F)C2 (stereo not shown) [Example 3.2, N-myrtanyl-1-(2′,4′-difluorophenyl)-6-methyl-1,4-dihydrothieno[3′,2′:4,5]cyclopenta[1,2-c]pyrazol-3-carboxamide] | 5.8 ± 1 | 22.3 ± 25
CC1(C)C2CCC(CNC(=O)c3nn(-c4ccc(Cl)cc4Cl)c4c3CCc3sc(-c5ccccc5)cc3-4)C1C2 (stereo not shown) [Example 3.6, N-myrtanyl-1-(2′,4′-dichlorophenyl)-7-phenyl-4,5-dihydro-1H-thieno[2,3-g]indazol-3-carboxamide] | 4350 ± 251 | 86.4 ± 20
Cc1cc2c(s1)-c1c(c(C(=O)NCC3CCC4CC3C4(C)C)nn1-c1ccc(Cl)cc1Cl)C2 (stereo not shown) [Example 3.8, N-myrtanyl-1-(2′,4′-dichlorophenyl)-6-methyl-1,4-dihydro-thieno[3′,2′:4,5]cyclopenta[1,2-c]pyrazole-3-carboxamide] | 30.6 ± 7.2 | 400 ± 71
CC1(C)C2CCC(CNC(=O)c3nn(-c4ccc(F)cc4F)c4c3Cc3cc(Br)sc3-4)C1C2 (stereo not shown) [Example 3.12, N-myrtanyl-6-bromo-1-(2′,4′-difluorophenyl)-1,4-dihydro-thieno[3′,2′:4,5]cyclopenta[1,2-c]pyrazole-3-carboxamide] | 9.3 ± 1.5 | 160 ± 2.5
Cc1cc2c(s1)-c1c(c(C(=O)CC3CCCCC3)nn1-c1ccc(Cl)cc1Cl)C2 [Example 3.15, 1-(2′,4′-dichlorophenyl)-6-methyl-3-(1-oxo-2-cyclohexyleth-1-yl)-1,4-dihydro-thieno[3′,2′:4,5]cyclopenta[1,2-c]pyrazole] | 5.4 ± 1.4 | 720 ± 139
